Results from PMC7432838, “A Curcumin Analog Exhibits Multiple Biologic Effects on the Pathogenesis of Alzheimer’s Disease and Improves Behavior, Inflammation, and β-Amyloid Accumulation in a Mouse Model” (International Journal of Molecular Sciences, 2020).
Values joined by “and” are separate entries in the source; they are usually repeats but may differ in a detail not shown here. Equal values may be shown once.

Tests used:
Apo E in Huh-7 cells = experiment: Western blotting of ApoE protein expression; type: cell-based, human; conditions: 2.62 µg/mL, 24 h, vs medium and curcumin control
Description: (§1) After cells were seeded and treated with curcumin and TML-6 for 24 h, cells were washed with ice-cold PBS (Phosphate Buffered Saline) and lysed with 100 μL of RIPA cell lysis buffer (Pierce Biotechnology, Rockford, IL, USA) supplemented with protease and phosphatase inhibitors (Roche Diagnostics, Mannheim, Germany). Cell lysates were further cleaned by centrifugation at 14,000 rpm at 4 °C for 15 min. Protein concentration was determined using a Bradford assay (Bio-Rad, Hercules, CA, USA). For Western blot analysis, 20 μg of each sample was prepared for SDS-PAGE (SDS Poly-acrylamide-gel-electrophoresis) and denatured at 95 ℃ for 10 min. The samples prepared from total lysates were loaded and separated by SDS-PAGE (8% or 10%), and then transferred to PVDF membranes (pore size 0.45 μm; PerkinElmer, Waltham, MA, USA) by semi-dry transfer cell (Bio-Rad). After blocking with 5% skim milk in PBS-T (0.1% Tween-20), the membranes were hybridized with primary antibodies at 1/1000 dilution at 4 °C overnight. On the next day, membranes were washed with PBS-T followed by incubation with HRP-conjugated anti-mouse or anti-rabbit secondary antibody (DAKO, Santa Clara, CA, USA) at 1/5000 dilution at room temperature for 1 h as appropriate. […]

[1] = Water solubility (preformulation, preliminary studies); type: physicochemical; conditions: water, unformulated
Description: The active pharmaceutical ingredients of TML-6 were synthesized and physico-chemical properties were characterized by SinoPharm Pharmaceutical Company (SPT), Tainan, Taiwan. Preformulation studies on the solubility of TML-6 were conducted by Value Pharmaceutical Services (VPS) Company, Jiansu, China. All the data in this study were conducted using unformulated TML-6. Formulation to optimize the solubility and permeability of TML-6 is under development for toxicological studies.

3xTg AD transgenic mice = experiment: Morris water maze test in 3xTg AD transgenic mice; type: in vivo, mouse; conditions: 150 mg/kg/day in diet for four months; six-month-old 3xTg AD mice; vs vehicle control
Description: (§2) The triplex transgenic mouse model (3xTg-AD, APP Swedish, MAPT P301L, and PSEN1 M146V) was adopted as the AD model and bred at the laboratory animal center of National Cheng Kung University (NCKU), Tainan, Taiwan. The mice were housed in a room maintained on a 12 h light–dark cycle and fed ad libitum. Six-month old 3xTg-AD mice were used for animal experiments. Experimental procedures for handling the mice were in accordance with the guidelines of the Institutional Animal Care and Use Committee (IACUC) of NCKU. These mice develop plaques and tangles pathology. Aβ deposition is progressive, and deposition appears as early as nine months for triplex-Tg mice. The AD transgenic mice were fed with the control diet (Laboratory Rodent Diet 5001, LabDiet, St. Louis, MO, USA), the control diet plus traditional curcumin (150 mg/kg), or the control diet plus TML-6 (150 mg/kg) for four months. Diets were stored at 4 °C and were added to mouse cage twice a week. The quantity of the diet consumed by the mice was determined daily. The concentration of curcumin and TML-6 in the diet was determined to be around 1.20 mg/g of diet after assaying by HPLC by the Development Center for the Biotechnology (DCB), Taipei, Taiwan.
For assessing spatial learning and memory, the Morris water maze was used as we described before. […] The time taken to reach the platform was recorded as escape latency.

[2] = tested on: phospho-mTOR in Huh-7 cells; experiment: Western blotting of phospho-mTOR; type: cell-based, human
Description: After cells were seeded and treated with curcumin and TML-6 for 24 h, cells were washed with ice-cold PBS (Phosphate Buffered Saline) and lysed with 100 μL of RIPA cell lysis buffer (Pierce Biotechnology, Rockford, IL, USA) supplemented with protease and phosphatase inhibitors (Roche Diagnostics, Mannheim, Germany). Cell lysates were further cleaned by centrifugation at 14,000 rpm at 4 °C for 15 min. Protein concentration was determined using a Bradford assay (Bio-Rad, Hercules, CA, USA). For Western blot analysis, 20 μg of each sample was prepared for SDS-PAGE (SDS Poly-acrylamide-gel-electrophoresis) and denatured at 95 ℃ for 10 min. The samples prepared from total lysates were loaded and separated by SDS-PAGE (8% or 10%), and then transferred to PVDF membranes (pore size 0.45 μm; PerkinElmer, Waltham, MA, USA) by semi-dry transfer cell (Bio-Rad). After blocking with 5% skim milk in PBS-T (0.1% Tween-20), the membranes were hybridized with primary antibodies at 1/1000 dilution at 4 °C overnight. On the next day, membranes were washed with PBS-T followed by incubation with HRP-conjugated anti-mouse or anti-rabbit secondary antibody (DAKO, Santa Clara, CA, USA) at 1/5000 dilution at room temperature for 1 h as appropriate. Finally, the images were captured by Amersham Imager 600 (GE Healthcare Life Sciences, Marlborough, MA, USA) after being developed using the chemiluminescent HRP substrate (Millipore, Bedford, MA, USA). The primary antibodies used in this study were anti-APP, anti-NF-κB (Cell Signaling Technology, Danvers, MA, USA), anti-Apo E, anti-p-mTOR (Abcam, Cambridge, MA, USA).

[3] = tested on: Iba-1 (microglial activation marker) in 3xTg AD mouse hippocampus; experiment: Immunofluorescence staining of Iba-1 in brain of 3xTg AD mice; type: in vivo; conditions: 150 mg/kg/day in diet for four months
Description: as §2, with “The AD transgenic mice were fed with the control diet (Laboratory Rodent Diet 5001, LabDiet, St. Louis, MO, USA), the control diet plus traditional curcumin (150 mg/kg), or the control diet plus TML-6 (150 mg/kg) for four months. Diets were stored at 4 °C and were added to mouse cage twice a week.” left out
(§3) Mice were anesthetized using pentobarbital (60 mg/kg, intravenous) and then transcardial perfusion was performed with 0.01 M PBS (pH 7.4). […] Images were captured by the TissureFAXS microscopy system and positive signals were quantified by TissueQuest software module (TissueGnostic, Vienne, Austria).

N2a/APPswe stable cells = experiment: Cell viability/morphology by micrographs during Aβ ELISA treatment; type: cell-based, mouse; conditions: 24 h
Description: (§4) Extracellular levels of soluble Aβ40 and Aβ42 were determined by LEGEND MAX™ β-Amyloid x-40 and X-42 ELISA Kit (Biolegend, San Diego, CA, USA). Overexpression of the APP Swedish mutation (APPswe) in the N2a neuronblastoma cell line was called the N2a/APPswe cell line. N2a/APPswe stable cells were seeded at 8 × 10^5 cells in 6 cm dishes. After overnight incubation, the cells were treated with curcumin and TML-6 for 24 h. […] The culture supernatant was collected and centrifuged at 1500× g at 4 °C for 5 min to remove cells. The culture supernatants from various treatments were conducted to examine the Aβ levels according to the manufacturer’s instructions. The samples for the detection of soluble Aβ levels were diluted in the supernatant at a 1:10 dilution for this experiment. Levels of soluble Aβ were detected by measuring the OD at 620 nm (Molecular Devices, San Jose, CA, USA). The calculation of Aβ levels was based on the standard curves of Aβ40 and Aβ42, respectively.

[4] = tested on: Aβ in 3xTg AD mouse brain; experiment: Immunofluorescence staining of Aβ in brain of 3xTg AD mice; type: in vivo; conditions: 150 mg/kg/day in diet for four months
Description: as §2, with “The AD transgenic mice were fed with the control diet (Laboratory Rodent Diet 5001, LabDiet, St. Louis, MO, USA), the control diet plus traditional curcumin (150 mg/kg), or the control diet plus TML-6 (150 mg/kg) for four months. Diets were stored at 4 °C and were added to mouse cage twice a week.” left out
as §3

[5] = tested on: APP (amyloid precursor protein) in Huh-7 cells; experiment: Western blotting of APP protein expression; type: cell-based, human; conditions: 1.96 µg/mL, 24 h, vs medium control
Description: as §1

[6] = tested on: Aβ40 production in N2a/APPswe stable cells; experiment: Aβ40 ELISA of culture medium; type: cell-based, mouse; conditions: 3.14 µg/mL, 24 h, culture medium
Description: as §4

Huh-7 cells = experiment: Cytotoxicity assay by Cell Counting Kit-8 (CCK-8); type: cell-based, human; conditions: Huh-7, 24 h, concentrations below 5 μM (2.61 µg/mL)
Description: (§5) The cytotoxicity assay was performed using the Cell Counting Kit-8 (CCK-8, Sigma). We dissolved 0.0524 g of TML-6 (molecular weight is 523.62 g/mol) in 10 mL DMSO to obtain TML-6 stock at 10 mM for cell line study. […] Briefly, Huh-7 cells were seeded overnight in 96-well plates at 5000 cells/well and then subjected to traditional curcumin or TML-6 treatment for 24 h. At each time point, a CCK-8 solution (0.25 mg/mL) was added to the medium in each well for an additional 4 h incubation, and absorbance was measured at 570 nm using an ELISA reader.

[7] = Cytotoxicity assay by Cell Counting Kit-8 (CCK-8); type: cell-based, human; conditions: human, Huh-7 cells; Huh-7, 24 h
Description: as §5

[8] = tested on: phospho-NF-κB in Huh-7 cells; experiment: Western blotting of phosphorylated NF-κB; type: cell-based, human; conditions: 1.96 µg/mL, 24 h, vs medium control
Description: as §1

[9] = tested on: Aβ42 production in N2a/APPswe stable cells; experiment: Aβ42 ELISA of culture medium; type: cell-based, mouse; conditions: 3.14 µg/mL, 24 h, culture medium
Description: as §4

[10] = tested on: Nrf2 promoter in Huh-7 cells; experiment: Nrf2 promoter Dual-Luciferase reporter assay; type: cell-based, human
Description: To examine the activities of the anti-oxidative gene NrF2, Huh-7 cells were seeded in 24-well culture plates and then co-transfected with serial dilution of pG5-Nrf2-Luc (firefly luciferase) with the pRL-TK Renilla luciferase reporter. Following overnight incubation, the transfected cells were treated with traditional curcumin and TML-6 compounds for additional 24 h. The luciferase reporter assay was performed using the Dual-Luciferase Reporter assay system (Promega, Madison, WI, USA). The cell lysates were assayed for both firefly and Renilla luciferase activities. The relative luciferase units (RLU) were measured using a luminometer (GLOMAX Multi, Promega). Firefly luciferase activity was normalized for transfection efficiency using the Renilla luciferase activity in each lysate as the control. The RLUs are expressed as means plus standard deviation of three independent experiments.

[11] = Brain penetration study in normal mice after oral dosing; type: in vivo; conditions: oral dose of 150 mg/kg, normal mouse brain
[12] = Pharmacokinetic study after oral administration in SD rats; type: in vivo, rat; conditions: male, Sprague-Dawley, rat, in vivo, po, 150 mg/kg
Description: In order to evaluate the bioavailability of curcumin and its analog TML-6, pharmacokinetic studies were commissioned and conducted by the Development Center for Biotechnology (DCB, Taipei, Taiwan). The kinetics of curcumin and TML-6 in blood were collected at 0.25, 0.5, 1, 2, 4, 6, 8 and 10 h after oral administration of curcumin and TML-6 at the dose of 150 mg/kg in male Sprague–Dawley Rats.

rat = experiment: Preliminary toxicological experiments in the rat model; type: in vivo; conditions: preliminary data
[13] = Brain penetration study in AD transgenic mice after oral dosing; type: in vivo, mouse; conditions: oral dose of 150 mg/kg

CCN(CC)C(=O)CC(C)(C(=O)/C=C/c1ccc(OC)c(OC)c1)C(=O)/C=C/c1ccc(OC)c(OC)c1 [TML-6]
induction of ApoE protein expression level (Apo E in Huh-7 cells): approximately 44% | solubility [1]: < 100 µg/mL | learning behavior in Morris water maze (in words) (3xTg AD transgenic mice): significantly improved hippocampus-dependent learning behavior | phospho-mTOR suppression (Western blot, in words) ([2]; Huh-7, 24 h): suppressed in all the concentrations | potency of phospho-mTOR reduction relative to curcumin ([2]; TML-6 5.24 µg/mL gives same level as curcumin 20 µg/mL): about 4 fold | average reduction of phospho-mTOR ([2]; dose below IC50 (0.65~3.93 µg/mL), 24 h): about 30% | suppression of Iba-1 expression in hippocampus vs vehicle control [3]: 50% | highest dose, at which cytotoxicity was seen (micrographs) (N2a/APPswe stable cells): 4.19 µg/mL | reduction of Aβ expression in brain vs vehicle control [4]: 51% | reduction of APP protein expression level [5]: 60% | Aβ40 level, reduced to % as compared with control group [6]: approximately 86% | cytotoxicity (CCK-8) (Huh-7 cells): no cytotoxicity | IC50 at 24 h [7]: 4.19 µg/mL and 8 µM | decrease of phosphorylated NF-κB level [8]: about 50% | Aβ42 level, reduced to % as compared with control group [9]: ~80% | concentration of highest Nrf2 transcriptional activation ([10]; Huh-7, 24 h, luciferase reporter): 1.32 µg/mL | concentration beyond which cytotoxicity was found in Nrf2 promoter-transfected cells ([10]; Huh-7 transiently transfected with Nrf2 promoter): > 5240 ng/mL | Nrf2 promoter activity, fold stronger than traditional curcumin at 10 µg/mL ([10]; TML-6 at 1.32 µg/mL vs curcumin 10 µg/mL, Huh-7, 24 h): 12.1 fold | Nrf2 promoter activity, fold stronger than traditional curcumin at 20 µg/mL ([10]; TML-6 at 1.32 µg/mL vs curcumin 20 µg/mL, Huh-7, 24 h): 6.6 fold | detection in brain [11]: could not be detected | Cmax [12]: 35.9 ± 15.6 ng/mL | MRT [12]: 3.91 ± 0.62 h | Tmax [12]: 3.67 ± 2.08 h | half-life [12]: 1.27 ± 0.51 h | AUC(0-t) ([12]; AUC(0-8)): 181 ± 78.7 ng·h/mL | AUC(0-t) ([12]; AUC(0-last)): 177 ± 76.8 ng·h/mL | toxicity in the rat model (in words) (rat): no obvious toxicity | Kp ([13]; brain relative to plasma, AD transgenic mouse, read-out: brain level as % of the plasma pK levels): 0.1 | level detected in brain ([13]; AD transgenic mouse brain, preliminary): 3 ng/mL
